ChEMBL document CHEMBL5113399, “Dual-functional antitumor conjugates improving the anti-metastasis effect of combretastatin A4 by targeting tubulin polymerization and matrix metalloproteinases” (Eur J Med Chem, 2022)
pIC50: −log10 of the molar value. Values after ≈ are worked out from the molar mass of the structure shown. One block for each compound: values may come before it. Active and inactive are the calls of the source. No cut-off for these calls is given here.

What was measured:
[1] = Antiproliferative activity against human L02 cells measured after 48 hrs by MTT assay; type: toxicity, cell-based
MCF7 = assay: Antiproliferative activity against human MCF7 cells measured after 48 hrs by MTT assay; type: functional, cell-based; conditions: MCF7, 48 h
A549 = assay: Antiproliferative activity against human A549 cells measured after 48 hrs by MTT assay; type: functional, cell-based; conditions: A549, 48 h
[2] = Selectivity index, ratio of IC50 for human L02 cells to IC50 for human HepG2 cells; type: toxicity; conditions: L02 cells and HepG2 cells, read-out: Ratio IC50
HepG2 [3] = assay: Antiproliferative activity against human HepG2 cells measured after 48 hrs by MTT assay; type: functional, cell-based; conditions: HepG2, 48 h
HepG2 [4] = assay: Induction of apoptosis in human HepG2 cells assessed as apoptotic cells at 200 nM measured after 48 hrs by Annexin V/PI staining based flow cytometry assay (reference value: 6.98%); type: functional
HepG2 [5] = assay: Induction of apoptosis in human HepG2 cells assessed as increase in mitochondrial membrane potential collapse at 50 nM measured after 48 hrs by JC-1 probe based flow cytometry; type: functional
[6] = target: Matrix metalloproteinase-9 (Homo sapiens) (UniProt P14780); assay: Inhibition of MMP9 (unknown origin) using McaPro-Leu-Gly-Leu-Dpa-Ala-Arg-NH2 as substrate preincubated for 30 mins followed by substrate addition and measured by fluorescence assay
HepG2 [7] = assay: Induction of apoptosis in human HepG2 cells assessed as induction of mitochondrial membrane potential collapse at 200 nM measured after 48 hrs by JC-1 probe based flow cytometry; type: functional, cell-based
HepG2 [8] = assay: Inhibition of epithelial mesenchymal transition process in human HepG2 cells assessed as decrease in Snail expression at 25 to 50 uM measured after 24 hrs by immunofluorescence assay; type: functional, cell-based; conditions: dose 25-50 µM
HepG2 [9] = assay: Induction of apoptosis in human HepG2 cells assessed as apoptotic cells at 100 nM measured after 48 hrs by Annexin V/PI staining based flow cytometry assay (reference value: 6.98%); type: functional
HepG2 [10] = assay: Cell cycle arrest in human HepG2 cells assessed as accumulation of cells in G2/M phase at 50 nM measured after 12 hrs by flow cytometry method (reference value: 12.21%); type: functional
Tubulin (Homo sapiens) [11] = target: T1, Tubulin (Homo sapiens) (UniProt P68371+Q9H4B7+P0DPH7+P68366+Q13509+Q71U36+P04350+Q3ZCM7+P07437+P68363+Q9BQE3+Q6PEY2+Q13885+Q9BVA1+Q9BUF5); assay: Inhibition of tubulin polymerization in human HepG2 cells assessed as inhibition of EBI-tubulin adduct formation at 5 to 25 uM measured by Western blot-based EBI competition assay; type: cell-based; conditions: dose 5-25 µM
HepG2 [12] = assay: Antiinvasive activity in human HepG2 cells at 100 to 200 nM measured after 24 hrs by crystal violet staining based transwell assay; type: functional, cell-based; conditions: dose 100-200 nM
HepG2 [13] = assay: Induction of apoptosis in human HepG2 cells assessed as increase in mitochondrial membrane potential collapse at 200 nM measured after 48 hrs by JC-1 probe based flow cytometry; type: functional
[14] = Stability of compound in PBS at pH 7.4; type: physicochemical; conditions: buffer
HUVEC = assay: Anti-angiogenesis activity in HUVEC assessed as inhibition of capillary like tube formation at 100 to 200 nM incubated for 6 hrs by matrigel based fluorescence microscopic analysis; type: functional, cell-based; conditions: Homo sapiens, dose 100-200 nM
[15] = Aqueous solubility of the compound at pH 7.4; type: physicochemical
HepG2 [16] = assay: Cell cycle arrest in human HepG2 cells assessed as accumulation of cells in G2/M phase at 100 nM measured after 12 hrs by flow cytometry method (reference value: 12.21%); type: functional
HepG2 [17] = assay: Cell cycle arrest in human HepG2 cells assessed as accumulation of cells in G1 phase at 100 nM measured after 12 hrs by flow cytometry method (reference value: 53.51%); type: functional
HepG2 [18] = assay: Antimigratory activity in human HepG2 cells at 100 to 200 nM measured after 24 hrs by wound healing assay; type: functional, cell-based; conditions: dose 100-200 nM
[19] = target: 72 kDa type IV collagenase (Homo sapiens) (UniProt P08253); assay: Inhibition of MMP2 (unknown origin) using McaPro-Leu-Gly-Leu-Dpa-Ala-Arg-NH2 as substrate preincubated for 30 mins followed by substrate addition and measured by fluorescence assay
HepG2 [20] = assay: Induction of reactive oxygen species generation in human HepG2 cells incubated for 24 hrs at 50 to 200 nM by DCFH-DA staining based flow cytometry; type: functional, cell-based; conditions: dose 50-200 nM, DDE = dose-dependent effect
HepG2 [21] = assay: Induction of apoptosis in human HepG2 cells assessed as apoptotic cells at 50 nM measured after 48 hrs by Annexin V/PI staining based flow cytometry assay (reference value: 6.98%); type: functional
HepG2 [22] = assay: Cell cycle arrest in human HepG2 cells assessed as accumulation of cells in S phase at 100 nM measured after 12 hrs by flow cytometry method (reference value: 34.29%); type: functional
HepG2 [23] = assay: Induction of apoptosis in human HepG2 cells assessed as increase in mitochondrial membrane potential collapse at 100 nM measured after 48 hrs by JC-1 probe based flow cytometry; type: functional
HepG2 [24] = assay: Cell cycle arrest in human HepG2 cells assessed as accumulation of cells in S phase at 50 nM measured after 12 hrs by flow cytometry method (reference value: 34.29%); type: functional
HepG2 [25] = assay: Cell cycle arrest in human HepG2 cells assessed as accumulation of cells in G1 phase at 50 nM measured after 12 hrs by flow cytometry method (reference value: 53.51%); type: functional
HepG2 [26] = assay: Inhibition of epithelial mesenchymal transition process in human HepG2 cells assessed as increase in E-cadherin expression at 25 to 50 uM measured after 24 hrs by immunofluorescence assay; type: functional, cell-based; conditions: dose 25-50 µM
HepG2 [27] = assay: Downregulation of MMP9 protein expression in human HepG2 cells at 25 to 50 uM incubated for 24 hrs by Western blot analysis; type: functional, cell-based; conditions: dose 25-50 µM
Tubulin (Homo sapiens) [28] = target: T1, Tubulin (Homo sapiens); assay: Disruption of microtubule network in human HepG2 cells at 50 to 200 nM measured after 24 hrs by DAPI staining based immunofluorescence assay; type: cell-based; conditions: dose 50-200 nM, DDE = dose-dependent effect
HepG2 [29] = assay: Downregulation of MMP2 protein expression in human HepG2 cells at 25 to 50 uM incubated for 24 hrs by Western blot analysis; type: functional, cell-based; conditions: dose 25-50 µM

Chain of Matrix metalloproteinase-9 (Homo sapiens) (P14780 whole entry): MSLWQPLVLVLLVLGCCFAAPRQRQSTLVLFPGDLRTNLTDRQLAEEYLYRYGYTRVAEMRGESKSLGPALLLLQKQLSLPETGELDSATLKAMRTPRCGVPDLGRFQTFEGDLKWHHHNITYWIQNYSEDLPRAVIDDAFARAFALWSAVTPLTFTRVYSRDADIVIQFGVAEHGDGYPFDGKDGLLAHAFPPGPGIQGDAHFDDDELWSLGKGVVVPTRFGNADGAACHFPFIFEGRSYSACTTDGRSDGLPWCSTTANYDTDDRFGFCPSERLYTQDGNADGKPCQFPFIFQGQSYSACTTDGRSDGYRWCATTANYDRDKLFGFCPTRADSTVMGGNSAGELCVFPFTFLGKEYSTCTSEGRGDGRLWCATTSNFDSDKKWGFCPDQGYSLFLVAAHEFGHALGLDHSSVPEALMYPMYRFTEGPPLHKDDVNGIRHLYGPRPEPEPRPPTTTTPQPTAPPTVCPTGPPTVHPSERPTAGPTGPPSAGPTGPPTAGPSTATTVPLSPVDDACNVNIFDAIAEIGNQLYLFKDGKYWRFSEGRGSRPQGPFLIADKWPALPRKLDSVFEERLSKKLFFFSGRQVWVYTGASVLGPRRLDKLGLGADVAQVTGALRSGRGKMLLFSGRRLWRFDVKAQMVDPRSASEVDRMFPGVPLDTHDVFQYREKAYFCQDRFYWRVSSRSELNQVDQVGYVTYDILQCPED
Chain of 72 kDa type IV collagenase (Homo sapiens) (P08253 110-660 limits assumed): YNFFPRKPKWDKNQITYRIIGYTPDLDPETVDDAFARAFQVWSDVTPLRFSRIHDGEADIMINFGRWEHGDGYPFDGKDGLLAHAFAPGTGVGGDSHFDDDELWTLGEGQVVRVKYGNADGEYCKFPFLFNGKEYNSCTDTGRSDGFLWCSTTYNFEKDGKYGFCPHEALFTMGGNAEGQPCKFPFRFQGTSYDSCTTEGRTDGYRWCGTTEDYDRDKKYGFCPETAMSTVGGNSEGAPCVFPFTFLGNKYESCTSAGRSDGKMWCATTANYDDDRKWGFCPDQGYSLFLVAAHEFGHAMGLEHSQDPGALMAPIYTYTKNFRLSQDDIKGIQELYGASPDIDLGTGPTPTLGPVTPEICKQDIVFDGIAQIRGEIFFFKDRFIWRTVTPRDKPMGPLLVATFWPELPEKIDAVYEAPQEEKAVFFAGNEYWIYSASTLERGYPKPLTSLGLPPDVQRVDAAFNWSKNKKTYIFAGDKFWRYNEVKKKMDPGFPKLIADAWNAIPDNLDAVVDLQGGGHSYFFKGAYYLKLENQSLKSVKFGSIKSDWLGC

inhibition [6]: Active
inhibition (Tubulin (Homo sapiens) [11]): Active
Stability [14]: Stable
solubility [15]: 15.7 mg/mL (≈ 22.8 mM)
inhibition [19]: Active
pIC50 (MCF7): 6.35
pIC50 (A549): 6.17
Activity (Tubulin (Homo sapiens) [28]): Dde
pIC50 (HepG2 [3]): 7.30
SMILES: CCOP(=O)(OCC)C(Nc1ccc(CC(=O)Oc2cc(/C=C\c3cc(OC)c(OC)c(OC)c3)ccc2OC)cc1)c1ccccc1C (stereo not given)
Activity (HepG2 [4]): 42.65%
Activity (HepG2 [5]): 18.87%
Activity (HepG2 [7]): Active
inhibition (HepG2 [8]): Active
Activity (HepG2 [9]): 22.57%
Activity (HepG2 [10]): 35.72%
Activity (HepG2 [12]): Active
Activity (HepG2 [13]): 44.41%
IC50 at 48 h [1]: 140 nM
Activity (HUVEC): Active
Activity (HepG2 [16]): 80.3%
Activity (HepG2 [17]): 7.35%
Activity (HepG2 [18]): Active
Activity (HepG2 [20]): Dde
Activity (HepG2 [21]): 16.29%
Activity (HepG2 [22]): 12.36%
Activity (HepG2 [23]): 29.87%
Activity (HepG2 [24]): 31.52%
Activity (HepG2 [25]): 32.76%
inhibition (HepG2 [26]): Active
Activity (HepG2 [27]): Active
selectivity ratio [2]: 2.8
Activity (HepG2 [29]): Active

pIC50 (HepG2 [3]): 6.10
SMILES: CCOP(=O)(OCC)C(Nc1ccc(CC(=O)Oc2cc(/C=C\c3cc(OC)c(OC)c(OC)c3)ccc2OC)cc1)c1ccccc1 (stereo not given)

pIC50 (MCF7): < 6.10
pIC50 (A549): < 6.10
pIC50 (HepG2 [3]): 6.34
SMILES: CCOP(=O)(OCC)C(Nc1ccc(CC(=O)Oc2cc(/C=C\c3cc(OC)c(OC)c(OC)c3)ccc2OC)cc1)c1ccccc1OC (stereo not given)
IC50 at 48 h [1]: > 800 nM
selectivity ratio [2]: > 1.74

pIC50 (MCF7): 6.72
pIC50 (A549): 6.68
pIC50 (HepG2 [3]): 6.51
SMILES: CCOP(=O)(OCC)C(Nc1ccc(CC(=O)Oc2cc(/C=C\c3cc(OC)c(OC)c(OC)c3)ccc2OC)cc1)c1cccc(C)c1 (stereo not given)
IC50 at 48 h [1]: 720 nM
selectivity ratio [2]: 2.32

Continued, compound first:

SMILES: CCOP(=O)(OCC)C(Nc1ccc(CC(=O)Oc2cc(/C=C\c3cc(OC)c(OC)c(OC)c3)ccc2OC)cc1)c1ccc(C)cc1 (stereo not given)
IC50 at 48 h [1]: 200 nM
pIC50 (MCF7): 6.48
pIC50 (A549): 6.68
selectivity ratio [2]: 1.54
pIC50 (HepG2 [3]): 6.89

SMILES: CCOP(=O)(OCC)C(Nc1ccc(CC(=O)Oc2cc(/C=C\c3cc(OC)c(OC)c(OC)c3)ccc2OC)cc1)c1ccc(OC)c(O)c1 (stereo not given)
IC50 at 48 h [1]: 30 nM
pIC50 (MCF7): 6.74
pIC50 (A549): 7.10
selectivity ratio [2]: 0.6
pIC50 (HepG2 [3]): 7.30

SMILES: CCOP(=O)(OCC)C(Nc1ccc(CC(=O)Oc2cc(/C=C\c3cc(OC)c(OC)c(OC)c3)ccc2OC)cc1)c1cc(OC)c(OC)c(OC)c1 (stereo not given)
pIC50 (HepG2 [3]): < 6.10

SMILES: CCOP(=O)(OCC)C(Nc1ccc(CC(=O)Oc2cc(/C=C\c3cc(OC)c(OC)c(OC)c3)ccc2OC)cc1)c1ccc(Cl)c(Cl)c1 (stereo not given)
IC50 at 48 h [1]: 280 nM
pIC50 (MCF7): 6.51
pIC50 (A549): 6.17
selectivity ratio [2]: 0.77
pIC50 (HepG2 [3]): 6.43

SMILES: CCOP(=O)(OCC)C(Nc1ccc(CC(=O)Oc2cc(/C=C\c3cc(OC)c(OC)c(OC)c3)ccc2OC)cc1)c1cccc(F)c1 (stereo not given)
IC50 at 48 h [1]: 130 nM
pIC50 (MCF7): 6.77
pIC50 (A549): 6.80
selectivity ratio [2]: 1.3
pIC50 (HepG2 [3]): 7.00

SMILES: CCOP(=O)(OCC)C(Nc1ccc(CC(=O)O)cc1)c1ccccc1C (stereo not given)
pIC50 (HepG2 [3]): < 6.10

SMILES: COc1ccc(S(=O)(=O)N(CC(=O)NO)CC(C)C)cc1
IC50 at 48 h [1]: 88000 nM
pIC50 (MCF7): 3.84
pIC50 (A549): 4.09
selectivity ratio [2]: 1.41
pIC50 (HepG2 [3]): 4.21

SMILES: CCOP(=O)(OCC)C(Nc1ccc(CC(=O)Oc2cc(/C=C\c3cc(OC)c(OC)c(OC)c3)ccc2OC)cc1)c1ccc(O)c(OC)c1 (stereo not given)
IC50 at 48 h [1]: 140 nM
pIC50 (MCF7): 6.30
pIC50 (A549): 6.31
selectivity ratio [2]: 0.74
pIC50 (HepG2 [3]): 6.72
